The record followed here is US20050032149A1, “Enzyme catalyzed isotope labeling” (priority 2003, published 2005).

The target of assay [1] is T1, trypsin (Sus scrofa, UniProt P00761).
T1 construct: purchased Promega (Madison, Wis.)
Briefly: Kinetics of 16O-to-18O exchange of YGGFMK and YGGFMR catalyzed by trypsin (MALDI-FT-ICR-MS). It counts as biochemical. As for the experimental part: Kinetics Measurement of ^16O-to-^18O Exchange of YGGFMK and YGGFMR Catalyzed by Trypsin. […] Aliquots of the reaction mixture were taken at different time intervals for the first 10% of reactant conversion. The reaction temperature was maintained at 26±1° C., and the ionic strength was controlled by NaCl (45 mM). The reaction volume was typically 20 μL. The change of the peak intensity for the peptide was monitored by MALDI-FT-ICR-MS. Substrate concentrations used in the kinetics studies ranged between 0.2 KM and 5 KM, and measurements were duplicated for each substrate concentration. At high concentrations (>10 mM) of YGGFMK, acetonitrile (10% v/v) was used to increase the substrate solubility in reaction buffer. A full course of ^16O-to-^18O exchange reaction of YGGFMR was also recorded using similar conditions.
(§1) MALDI-FT-ICR Mass Spectrometric Analysis. Reaction mixtures in H2^18O were diluted with 70:30 acetonitrile:water (0.1% TFA) to obtain a final peptide concentration of about 10 pmol/μl. A 0.6 μL aliquot of this solution was applied on the MALDI stainless steel probe followed by 0.6 μL of a solution of 2,5-dihydroxybezoic acid (500 mM) in 70:30 acetonitrile:water (0.1% TFA). The mixture was gently stirred during the crystallization. An FT-ICR instrument equipped with a 4.7 T actively shielded magnet (lonspec Co., Irvine, Calif.) was used for this study. An external MALDI ion source was differentially pumped. A pulsed (5 ns width) Nd:YAG laser (Minilite, Contimuum, Inc., Santa Clara, Calif.) was operated at 355 nm (triple of its fundamental frequency). The laser energy was attenuated by adjusting the angle between two Glan-laser prism polarizers (Karl-Lambrecht Co., Chicago, Ill.). Ions were injected into the ICR cylindrical cell by an RF-only quadrupole ion guide. A 4 ms nitrogen pulse was used to trap the ions and remove their excess of kinetic energy. After a 4 s delay, the ions were excited by a 35 Vb-p RF sweep during 4 ms (29-180 kHz). The image signal was amplified and digitized at an acquisition rate of 2 MHz (512 k data point) resulting in the recording of a 262.1 ms time domain, which gave a typical mass resolution of 10 000. The average of single time domain transients (more than 10 times) was Fourier transformed into the corresponding frequency domain (two zero fills and Blackman apodization).
MALDI-FT-ICR Mass Spectrometric Analysis of ^16O-to-^18O Exchange Reactions. […] The residual ^16O content in H2^18O (less than 5%) was not considered in formulation of the equation.
Kinetic Constants for ^16O-to-^18O Exchange of YGGFMK and YGGFMR Catalyzed by Trypsin. […] The time course for the first 10% of the reaction was limited to less than 30 min by adjusting the concentration of trypsin.
From the plots, values for kcat's, KM's, and kcat/KM's were calculated.

Assay [2] concerns the target T2, α-chymotrypsin (Bos taurus, UniProt P00766).
T2 construct: purchased Sigma (St. Louis, Mo.); host or cells: bovine pancreas
Briefly: Chymotryptic digestion of apomyoglobin in H2 18O, 18O2-coding of peptides. It counts as biochemical, Bovine. The settings on record: apomyoglobin 51 nmol, 200 μg α-chymotrypsin, H2 18O pH 8.0, room temperature. How it is done:
Chymotryptic Digestion of Apomyoglobin in H2^18O. An apomyglobin (51 nmol) suspension in H2^18O (24 mM Tris/HCl, pH 8.0) was incubated with 200 μg of α-chymotrypsin (bovine pancreas, Sigma) at room temperature. Aliquots were taken at different time intervals for MALDI-FT-ICR analysis.
as §1, with “[…] In mass spectra, heights for” for “The average of single time domain transients (more than 10 times) was Fourier transformed into”, “monoisotope peaks for peptides, the peaks with masses 2 Da higher,” for “corresponding frequency domain (two zero fills”, “the peaks with masses 4 Da higher were measured as peak intensities I0, I2, and I4, respectively.” for “Blackman apodization).”
Exchange Reactions Catalyzed by Chymotrypsin. Chymotryptic proteolysis of apomyoglobin in H2^18O was analyzed by MALDI-FT-ICR. […]

Assay [3] has as its target T1, trypsin. Briefly: Control experiment: non-Arg/Lys-terminated peptides incubated with trypsin in H2 18O. Particulars: mixture VEPIPY 710 μM and YGGFM 500 μM, 200 mM Tris, 2 μg trypsin, H2 18O pH 8.5, room temperature overnight. It counts as biochemical. How it is done:
For the process of ^18O2-coding of Arg- and Lys-terminated peptides through two exchange reactions, a sequential mechanism (FIG. 7) is supported by the kinetics shown in FIG. 5. Trypsin-catalyzed exchange reactions are substrate-specific; only peptides with Arg or Lys in the P1 position can undergo exchanges catalyzed by trypsin. As a control experiment, a mixture of VEPIPY (710 μM) and YGGFM (500 μM) was incubated with 200 mM Tris and 2 μg trypsin in H2^18O (pH 8.5) at room-temperature overnight. […] Thus, there was not significant catalysis from either the enzyme or the buffer.

Setting [4] is: trypsin-catalyzed 16O-to-18O exchange, double reciprocal plot, pH 8.0, 26±1° C.

T1 sequence (P00761 9-231): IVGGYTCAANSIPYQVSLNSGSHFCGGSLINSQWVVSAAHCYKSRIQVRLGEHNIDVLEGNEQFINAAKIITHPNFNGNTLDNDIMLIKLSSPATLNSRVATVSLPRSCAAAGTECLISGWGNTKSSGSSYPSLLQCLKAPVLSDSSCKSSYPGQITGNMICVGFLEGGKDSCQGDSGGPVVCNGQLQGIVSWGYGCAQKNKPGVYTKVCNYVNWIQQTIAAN

In general, Km refers to the concentration of substrate that gives half-maximal velocity. For orientation: kcat means the number of substrate molecules converted per active site and unit of time at saturation. As for YGGFMK, in assay [1] (setting [4]), the Michaelis constant (Km) stood at 4400 ± 700 µM and the kcat was 2800 ± 300 min⁻¹. Further, in assay [1] (trypsin-catalyzed exchange), the Km came to 4400 µM and the kcat is on record as 2800+−300 per min. “RNDIMKY [CT10, Chymotryptic peptide of apomyoglobin]”: the “time to complete 18O2-coding” value in assay [2] came out at 1.5 h.

Consider “TGHPETLEKF [CT4, Chymotryptic peptide of apomyoglobin]”, for which the “time to complete 18O2-coding” value in assay [2] was 3.5 h. Regarding YGGFM, the exchange of oxygens entry in assay [3] is given as “No detectable exchange of oxygens”. With YGGFMR, in assay [1] (setting [4]), the Km stood at 1300 ± 300 µM and the kcat was 3500 ± 500 min⁻¹. Further, in assay [1] (trypsin-catalyzed exchange), the Michaelis constant (Km) is 1300 µM and the kcat is recorded as 3500+−500 per min. On to “GADAQGAMTKALELF [CT9, Chymotryptic peptide of apomyoglobin]”, for which, in assay [2], the “time to complete 18O2-coding” value stood at 20 h. Regarding VEPIPY, the exchange of oxygens entry in assay [3] is “No detectable exchange of oxygens”.
